Key:
[1] = tested on: isolated rat islets of Langerhans; settings: cited from earlier work
β-cells [2] = assay: Dynamics of insulin release from column perifused β-cells; format: cell-based, ob/ob mice; settings: for basal level of insulin secretion: 5 μM nocodazole (30 min) or 25 μM Taxol (15 min and throughout); for increase in insulin secretion: 1 μM glibenclamide in the presence of 5 μM nocodazole
Experimental: (§1) Staining of microtubules with an antibody against tubulin in β-cells pretreated with vehicle, nocodazole or taxol (a). Data are representative of three determinations. Effect of nocodazole (b) and taxol (c) on the dynamics of insulin release from column perifused β-cells. Cells were incubated with 5 μM nocodazole for 30 min or 25 μM taxol for 15 min prior to starting perifusion of the cells. Taxol was present during the whole experiment. The control cells were incubated with their respective vehicle solutions. Protocols were initiated at the times indicated in the figure with either 1 μM glibenclamide or 15 mM glucose. The data represents the mean+SEM of four experiments.
(§2) Ob/ob mice were obtained from a locally bread colony at the animal facility within the Karolinska Institute, Stockholm, Sweden. The ob/ob mice were starved overnight. The animals were decapitated, the pancreas was excised from the abdominal cavity and pancreatic β-cells were isolated after collagenase digestion as previously described (Lemmark, A, (1974) Diabetologica 10, 431-438; Nilsson, T. et al. (1987) Biochem. J. 248, 329-336). The cells were kept overnight in RPMI 1640 medium supplemented with 11 mM glucose, 10% FCS, 100 μg/ml streptomycin and 100 IU/ml penicillin at 37° C. in a humidified atmosphere of 5% CO2 in air.
The basal medium used for isolation and for conducting the experiments was a buffer containing 125 mM NaCl; 5.9 mM KCl; 1.3 mM CaCl2; 1.2 mM MgCl2; and 25 mM HEPES (pH 7.4). BSA was added to the medium at the concentration of 1 mg/ml. The dynamics of insulin release were studied by perifusing β-cell aggregates mixed with Bio-Gel P4 polyacrylamide beads (BioRad, Richmond, Calif.), in a 0.5 ml column at 37° C. (Kanatsuna, T. et al. (1981) Diabetes 30, 231-234). The flow rate was 0.2 ml/min. Two-min fractions were collected and insulin content was analyzed by radioimmunoassay.
(§3) Cells were incubated with 5 μM nocodazole for 30 min or 25 μM taxol for 15 min prior to starting perifusion of the cells. Taxol was present during the whole experiment. The control cells were incubated with their respective vehicle solutions. Protocols were initiated at the times indicated in FIG. 3 with either 1 μM glibenclamide or 15 mM glucose. The data represent the mean±SEM of four experiments.

β-cells [3] = assay: Staining of microtubules with an antibody against tubulin in pretreated β-cells; format: cell-based, ob/ob mice; settings: 5 μM nocodazole or 25 μM Taxol
Experimental: as §1, §3

[4] = tested on: Tubulin from bovine brain; assay: Tubulin polymerization in vitro (optical density at 340 nm); format: biochemical; settings: 0.17 mM glibenclamide, 2.9 mg/ml tubulin, versus DMSO control
Experimental: Glibenclamide accelerates microtubule growth. (a): Experimental data showing the increase in optical density at 340 nm, resulting from tubulin polymerization in vitro, as a function of time. Microtubule growth was induced by increasing the temperature from 15° C. (at t=0) to 35° C. The concentration of bovine brain tubulin was 2.9 mg/ml and the buffer solution contain 80 mM Pipes, 1 mM MgCl2, 1 mM EGTA, 1 mM GTP, 2.1% DMSO and 10% glycerol at pH 6.9. The black symbols indicate the presence of 0.17 mM glibenclamide whereas the gray symbols represent the controls in its absence. The polymerization was followed simultaneously for one pair at the time, with each pair being a glibenclamide sample and a control, to ensure comparisons are made on identical protein samples. The data presented is representative of four experiments. (b): The rate of tubulin polymerization as measured by the change in OD with time (dOD/dt) as a function of time. The experimental conditions were the same as in (a). Black lines indicate the presence of glibenclamide and gray lines its absence. […]
Tubulin from bovine brain was purchased from Cytoskeleton Inc. in aliquots of 1 mg lyophilized protein. […] The experiment was then started by altering the multicell holder set temperature to 35° C. and the absorbance at 340 nm was measured as a function of time. […]

pancreatic β-cells = assay: Binding of [125I]glibenclamide to intact β-cells and subcellular fractions, UV cross-linking, SDS-PAGE, autoradiography; design: species or system ob/ob mice
Excerpt: as §2
Binding of [^125I]glibenclamide (Amersham, UK) was performed in intact β-cells and in subcellular fraction derived therefrom. Isolated pancreatic islets from ob/ob mice (250-300) were homogenized in 300 μl buffer containing (in mM): HEPES 20, MgCl2 1, EGTA 1, EDTA 1, PMSF 1, protease inhibitors (leupeptin, aprotinin, pepstatin, antipain) 0.5 μg/ml in Eppendorf tubes using a motor pestle homogenizer. The homogenized material was centrifuged (800×g for 10 min) and the resultant pellet was resuspended again in 200 μl of homogenization buffer and centrifuged as above. […] This material was further analyzed by SDS-PAGE separation and autoradiography (FIG. 1b). […]

β-tubulin = assay: Confocal microscopy co-localization of BODIPY FL glibenclamide and anti β-tubulin antibody in β-cells; format: cell-based, ob/ob mice; settings: primary cultures of β-cells, BODIPY FL glibenclamide staining
Experimental: Further analysis of sulfonylureas binding to β-tubulin was performed using confocal microscopy in primary cultures of β-cells obtained from ob/ob mice. Isolated β-cells in culture were incubated in the presence or absence of different agonists for 3 min at 23° C. The incubation time was terminated by fixation of the cells with 4% formaldehyde in PBS for 10 min at room temperature. After rinsing twice with PBS, cells were incubated in acetone at −20° C. for 5 min and then quenched with PBS containing 1% BSA for 30 min. BODIPY® FL glibenclamide was purchased from Molecular Probes, Inc., Catalog Number B-7439; http://www.probes.com). The green-fluorescent BODIPY® FL fluorophore has excitation/emission maxima ˜503/512 nm. Staining with BODIPY® FL glibenclamide, primary anti β-tubulin antibody (Amersham, UK) and secondary Texas Red®-conjugated antibody (Molecular Probes Inc.) was performed at room temperature for 1 h. After rinsing with PBS the coverslips were mounted (SlowFade light, Molecular Probes, Eugene, Oreg.) and examined using a confocal laser scanning microscope (Leica TCS NT, Leica Lasertechnik GmbH, Heidelberg, Germany). Excitation wavelengths 488 nm and 568 nm were used. The confocal microscope was equipped with an Ar/Kr laser, a double dicroic mirror for rhodamine/fluorescein and a 63× lens (Leica PL APO 63×/1.32×0.6 oil). […]

Compound	effect on glucose-stimulated insulin secretion [1]	basal level of insulin secretion (β-cells [2])	effect on increase in insulin secretion elicited by 1 μM glibenclamide (β-cells [2]; 25 μM Taxol, 3 mM and 15 mM glucose)	changes in microtubule organization (β-cells [3])	rate of change in absorbance (rate of tubulin polymerization) ([4]; 15° C. to 35° C.)	extent of tubulin polymerization [4]	proteins associated with binding, cytosolic fraction (pancreatic β-cells)	increase in insulin secretion (β-cells [2]; 3 mM glucose) [fold]	increase in insulin secretion (β-cells [2]; 15 mM glucose)	co-localization with β-tubulin (β-tubulin)
CC(=O)O[C@H]1C(=O)[C@@]2(C)[C@H]([C@H](OC(=O)c3ccccc3)[C@]3(O)C[C@H](OC(=O)[C@H](O)[C@@H](NC(=O)c4ccccc4)c4ccccc4)C(C)=C1C3(C)C)[C@]1(OC(C)=O)CO[C@@H]1C[C@@H]2O [Taxol]	inhibit	did not affect	prevented the increase	nor did they induce visible changes	–	–	–	–	–	–
COc1ccc(Cl)cc1C(=O)NCCc1ccc(S(=O)(=O)NC(=O)NC2CCCCC2)cc1 [glibenclamide, 5-Chloro-N-[2-[4-[[[(cyclohexylamino)carbonyl]amino]sulfonyl]phenyl]ethyl]-2-methoxybenzamide]	–	–	–	–	faster	not a strong influence	associated with two proteins having a molecular mass of approximately 47 and 65 kDa	5	one-fold increase	indicated an interaction between glibenclamide and β-tubulin
COC(=O)Nc1nc2ccc(C(=O)c3cccs3)cc2[nH]1 [nocodazole]	inhibit	did not affect	–	nor did they induce visible changes	–	–	–	–	–	–

From patent US6586188B1, “Method for identification of compounds that bind to β-tubulin and stimulate insulin secretion” (Biovitrum AB, priority 1999, dated 2003)
